This note sets out measurements from article PMC9218946, “Identification of a Subtype-Selective Allosteric Inhibitor of GluN1/GluN3 NMDA Receptors” (Frontiers in Pharmacology, 2022).

The target in assay [1] is T1, GluN1/GluN2A (Homo sapiens, UniProt Q05586+Q12879).
T1 construct: expressed in transfected cells; host or cells: Xenopus oocytes
The experiment in a line: GluN1/GluN2A currents (data analyzed from Figure 3D, TEVC in Xenopus oocytes). It counts as cell-based. The note with it: 30 μM WZB117. The procedure: Two-electrode voltage-clamp (TEVC) recordings were performed on Xenopus oocytes expressing various subtypes of recombinant NMDARs. Each oocyte was injected with a mixture of 0.5–1.0 ng cDNAs or cRNAs encoding wild-type (WT) or mutant GluN1 (GluN1-1a or GluN1-4a) and GluN2 (2A-2D) or GluN3 (3A-3B) at a ratio of 1:1. The mutant GluN1-4a ^F484A/T518L was injected together with GluN3B to boost the currents of GluN1/GluN3B receptors, and WT GluN1-1a was used unless otherwise stated. The cRNAs of GluN1-4a, GluN3A and GluN3B were transcribed from corresponding DNAs using the mMESSAGE mMACHINE T7 Ultra kit (Life Technologies) according to the manufacturer’s instructions, and the others not specified were cDNAs. TEVC recording was performed 24–72 h post injection in extracellular solution containing (in mM): 100 NaCl, 0.3 BaCl2, 2.5 KCl, 0.01 DTPA and 5 HEPES, and the pH was adjusted to 7.3 using NaOH. All recordings were carried out at a holding potential of −60 mV.
Supplementary Figure S3 Effects of WZB117 on currents from HEK-293 cells co-expressing GluN1/GluN2A/GluN3A subunits. GluN1/GluN2A/GluN3A receptors were expressed on HEK-293 cells at a ratio of GluN1-EGFP: GluN2A: GluN3A = 1:1:2. The GluN1/GluN2A/GluN3A receptors were stimulated by 100 μM glutamate and 100 μM glycine. The data of GluN1/GluN2A were analyzed from Figure 3D. […]

Assay [2] has as its system GluN1/GluN2A/GluN3A. The experiment in a line: Whole-cell patch-clamp on HEK-293 cells transiently transfected with GluN1/GluN2A/GluN3A (1:1:2). It counts as cell-based. The note with it: 30 μM WZB117; 100 μM glutamate and 100 μM glycine; mixed receptor population. The procedure: Whole-cell patch-clamp recordings were performed at room temperature (22–25°C) using an EPC-10 amplifier and Patch Master Software (HEKA). Pipettes were pulled from borosilicate glass capillaries (World Precision Instruments), and the resistances were 3–5 MΩ when filled with the intracellular solution. The extracellular solution contained (in mM): 140 NaCl, 2.8 KCl, 1 CaCl2, 10 HEPES and 20 sucrose (290–300 mOsm), pH adjusted to 7.3 using NaOH. The pipette solution contained (in mM): 115 CsF, 10 CsCl, 10 HEPES and 10 BAPTA (280–290 mOsm), pH adjusted to 7.2 using CsOH ([Grand et al., 2018]). When recording in hippocampal neurons, the extracellular solution contained (in mM): 140 NaCl, 5 KCl, 1 CaCl2, 1.25 MgCl2, 10 glucose, and 10 HEPES, and the pH was adjusted to 7.4 using NaOH, and the pipette solution contained (in mM): 140 KCl, 1 MgCl2, 10 EGTA, and 10 HEPES, and the pH was adjusted to 7.2 using KOH ([Xie et al., 2020]). Drug-containing solutions were applied through an RSC-200 Rapid Solution Changer with a 9-tube head (BioLogic Co., France), in which the cell is positioned close to the output of a capillary. […]
Supplementary Figure S3 Effects of WZB117 on currents from HEK-293 cells co-expressing GluN1/GluN2A/GluN3A subunits. […] The data of GluN1/GluN2A were analyzed from Figure 3D. […]

Assay [3] concerns GluN1/GluN3A with mutations in the pre-M1 region of the GluN1 subunit. The experiment in a line: Whole-cell patch-clamp on transiently transfected CHO cells, GluN1 pre-M1 alanine mutants. It counts as cell-based. The protocol: (§1) To establish GluN1/GluN3A stable cell lines, the human GluN1-1a (GenBank: NP_015566.1) and the rat GluN3A (GenBank: NP_612555.1) genes were subcloned into the pcDNA5-FRT-To and pcDNA3.1 vectors, respectively. An EGFP tag was added to the C-terminus of GluN1 or GluN3A using a T2A linker for identification of transfected cells during transient transfection. Point mutations were introduced by site-directed mutagenesis using PrimeSTAR (Takara). The human GluN2A (GenBank: NP_000824.1) gene was subcloned into the pcDNA3.1 vector. The chimeras GluN3A^670-673 MWPL/LEPF and GluN2A^550-553 LEPF/MWPL were generated using In-Fusion HD Cloning kits (Takara). All constructs were confirmed by DNA sequencing (Beijing Genomics Institute).
The Flp-in T-Rex 293 cell lines (Invitrogen), stably expressing GluN1/GluN3A were grown in DMEM basal medium (Gibco) supplemented with 10% fetal bovine serum (FBS, Invitrogen), 15 μg/ml blasticidin S (Invitrogen), 50 μg/ml hygromycin B (Invitrogen) and 500 μg/ml G418 (Gibco). Expression in cell lines was induced with 1 μg/ml doxycycline (Invitrogen) 24–28 h prior to the experiments. Chinese hamster ovary (CHO) cells were grown in DMEM-F12 basal medium (Gibco) supplemented with 10% FBS. In the study on the action sites of WZB117, all whole-cell patch-clamp recordings were performed on CHO cells. […]
A general note: In patch-clamp work, channel activity is measured electrically.

Assay [4] concerns the target GluN1/GluN3A receptors (UniProt Q05586+Q9R1M7). The experiment in a line: Whole-cell patch-clamp recording on GluN1/GluN3A Flp-in T-REx 293 stable cell lines. Type of assay: cell-based, human GluN1-1a, rat GluN3A. The arrangement: expressed in transfected cells. The protocol: as §1
The Flp-in T-Rex 293 cell lines (Invitrogen), stably expressing GluN1/GluN3A were grown in DMEM basal medium (Gibco) supplemented with 10% fetal bovine serum (FBS, Invitrogen), 15 μg/ml blasticidin S (Invitrogen), 50 μg/ml hygromycin B (Invitrogen) and 500 μg/ml G418 (Gibco). Expression in cell lines was induced with 1 μg/ml doxycycline (Invitrogen) 24–28 h prior to the experiments. Chinese hamster ovary (CHO) cells were grown in DMEM-F12 basal medium (Gibco) supplemented with 10% FBS. In the study on the action sites of WZB117, all whole-cell patch-clamp recordings were performed on CHO cells. The transfections were carried out using Lipofectamine 3000 transfection reagent (Thermo Fisher) according to the manufacturer’s instructions. All cells mentioned above were cultured in a 5% CO2 incubator at 37°C and passaged every other day at a ratio of 1:3.
Whole-cell patch-clamp recordings were performed at room temperature (22–25°C) using an EPC-10 amplifier and Patch Master Software (HEKA). Pipettes were pulled from borosilicate glass capillaries (World Precision Instruments), and the resistances were 3–5 MΩ when filled with the intracellular solution. The extracellular solution contained (in mM): 140 NaCl, 2.8 KCl, 1 CaCl2, 10 HEPES and 20 sucrose (290–300 mOsm), pH adjusted to 7.3 using NaOH. The pipette solution contained (in mM): 115 CsF, 10 CsCl, 10 HEPES and 10 BAPTA (280–290 mOsm), pH adjusted to 7.2 using CsOH ([Grand et al., 2018]). When recording in hippocampal neurons, the extracellular solution contained (in mM): 140 NaCl, 5 KCl, 1 CaCl2, 1.25 MgCl2, 10 glucose, and 10 HEPES, and the pH was adjusted to 7.4 using NaOH, and the pipette solution contained (in mM): 140 KCl, 1 MgCl2, 10 EGTA, and 10 HEPES, and the pH was adjusted to 7.2 using KOH ([Xie et al., 2020]). Drug-containing solutions were applied through an RSC-200 Rapid Solution Changer with a 9-tube head (BioLogic Co., France), in which the cell is positioned close to the output of a capillary. The solution, containing either one drug or a combination of different drugs, to be assayed flows out of the capillary at a moderate flow rate by gravity. The lifted cell, exposed to this stream, rapidly equilibrates in the perfusion solution. Whole-cell patch-clamp recordings in heterologous cells and hippocampal neurons were performed at a holding potential of −60 mV. Currents were sampled at 10 kHz and low pass filtered at 2.9 kHz. To record the native GluN1/GluN3 receptor-mediated currents, the extracellular solution was supplemented with 10 μM bicuculline (Sigma-Aldrich), 2 μM NBQX (Topscience), 100 μM D-APV (MCE), and 50 μM strychnine (UHN Shanghai) to block γ-aminobutyric acid type A (GABAA), α-amino-3-hydroxy-5-methylisoxazole-4-propionate (AMPA), GluN1/GluN2 NMDA and glycine receptors, respectively. To record the native GluN2-NMDARs-mediated currents, 10 μM bicuculline and 2 μM NBQX were added into the extracellular solution to block GABAA receptors and AMPA receptors, respectively ([Grand et al., 2018]; [Otsu et al., 2019]; [Zhu et al., 2020]).
Patch-clamp data were processed using Clampfit 10.4 (Molecular Device, Sunnyvale, CA, United States) and analyzed with GraphPad Prism 5.0 (GraphPad Software, San Diego, CA, United States). […]

GluN1/GluN3A receptors, sequence (Q9R1M7 24-1135, other chains not shown): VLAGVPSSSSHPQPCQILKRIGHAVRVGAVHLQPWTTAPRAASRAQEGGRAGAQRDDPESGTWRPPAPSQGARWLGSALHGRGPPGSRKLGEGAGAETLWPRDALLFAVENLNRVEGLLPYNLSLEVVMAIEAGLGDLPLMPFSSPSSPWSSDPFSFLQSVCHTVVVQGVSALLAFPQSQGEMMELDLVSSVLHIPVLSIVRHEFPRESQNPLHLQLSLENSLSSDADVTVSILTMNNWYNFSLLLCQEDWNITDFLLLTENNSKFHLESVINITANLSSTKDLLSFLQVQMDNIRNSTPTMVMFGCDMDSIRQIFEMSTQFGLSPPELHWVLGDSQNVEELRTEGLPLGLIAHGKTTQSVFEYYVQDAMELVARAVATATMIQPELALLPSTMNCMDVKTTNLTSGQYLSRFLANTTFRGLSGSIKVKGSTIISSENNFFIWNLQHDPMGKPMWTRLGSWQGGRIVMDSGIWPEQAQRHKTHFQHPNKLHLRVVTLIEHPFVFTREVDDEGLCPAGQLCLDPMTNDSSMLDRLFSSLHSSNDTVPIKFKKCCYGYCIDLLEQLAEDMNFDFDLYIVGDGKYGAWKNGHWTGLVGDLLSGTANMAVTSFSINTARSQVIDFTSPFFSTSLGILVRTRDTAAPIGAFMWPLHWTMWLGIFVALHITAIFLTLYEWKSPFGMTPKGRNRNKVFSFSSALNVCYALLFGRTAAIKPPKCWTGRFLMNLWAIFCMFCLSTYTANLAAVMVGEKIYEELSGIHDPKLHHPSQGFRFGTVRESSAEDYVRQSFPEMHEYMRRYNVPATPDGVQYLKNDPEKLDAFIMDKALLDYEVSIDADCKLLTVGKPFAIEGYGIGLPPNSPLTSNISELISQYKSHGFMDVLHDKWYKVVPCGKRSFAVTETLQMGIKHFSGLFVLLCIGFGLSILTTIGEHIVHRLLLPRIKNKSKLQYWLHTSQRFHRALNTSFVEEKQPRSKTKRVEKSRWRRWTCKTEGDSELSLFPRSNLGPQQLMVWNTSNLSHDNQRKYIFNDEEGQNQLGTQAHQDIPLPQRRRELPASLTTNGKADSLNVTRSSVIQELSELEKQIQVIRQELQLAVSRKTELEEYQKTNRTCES
T1 sequence (Q12879 23-1464, other chains not shown): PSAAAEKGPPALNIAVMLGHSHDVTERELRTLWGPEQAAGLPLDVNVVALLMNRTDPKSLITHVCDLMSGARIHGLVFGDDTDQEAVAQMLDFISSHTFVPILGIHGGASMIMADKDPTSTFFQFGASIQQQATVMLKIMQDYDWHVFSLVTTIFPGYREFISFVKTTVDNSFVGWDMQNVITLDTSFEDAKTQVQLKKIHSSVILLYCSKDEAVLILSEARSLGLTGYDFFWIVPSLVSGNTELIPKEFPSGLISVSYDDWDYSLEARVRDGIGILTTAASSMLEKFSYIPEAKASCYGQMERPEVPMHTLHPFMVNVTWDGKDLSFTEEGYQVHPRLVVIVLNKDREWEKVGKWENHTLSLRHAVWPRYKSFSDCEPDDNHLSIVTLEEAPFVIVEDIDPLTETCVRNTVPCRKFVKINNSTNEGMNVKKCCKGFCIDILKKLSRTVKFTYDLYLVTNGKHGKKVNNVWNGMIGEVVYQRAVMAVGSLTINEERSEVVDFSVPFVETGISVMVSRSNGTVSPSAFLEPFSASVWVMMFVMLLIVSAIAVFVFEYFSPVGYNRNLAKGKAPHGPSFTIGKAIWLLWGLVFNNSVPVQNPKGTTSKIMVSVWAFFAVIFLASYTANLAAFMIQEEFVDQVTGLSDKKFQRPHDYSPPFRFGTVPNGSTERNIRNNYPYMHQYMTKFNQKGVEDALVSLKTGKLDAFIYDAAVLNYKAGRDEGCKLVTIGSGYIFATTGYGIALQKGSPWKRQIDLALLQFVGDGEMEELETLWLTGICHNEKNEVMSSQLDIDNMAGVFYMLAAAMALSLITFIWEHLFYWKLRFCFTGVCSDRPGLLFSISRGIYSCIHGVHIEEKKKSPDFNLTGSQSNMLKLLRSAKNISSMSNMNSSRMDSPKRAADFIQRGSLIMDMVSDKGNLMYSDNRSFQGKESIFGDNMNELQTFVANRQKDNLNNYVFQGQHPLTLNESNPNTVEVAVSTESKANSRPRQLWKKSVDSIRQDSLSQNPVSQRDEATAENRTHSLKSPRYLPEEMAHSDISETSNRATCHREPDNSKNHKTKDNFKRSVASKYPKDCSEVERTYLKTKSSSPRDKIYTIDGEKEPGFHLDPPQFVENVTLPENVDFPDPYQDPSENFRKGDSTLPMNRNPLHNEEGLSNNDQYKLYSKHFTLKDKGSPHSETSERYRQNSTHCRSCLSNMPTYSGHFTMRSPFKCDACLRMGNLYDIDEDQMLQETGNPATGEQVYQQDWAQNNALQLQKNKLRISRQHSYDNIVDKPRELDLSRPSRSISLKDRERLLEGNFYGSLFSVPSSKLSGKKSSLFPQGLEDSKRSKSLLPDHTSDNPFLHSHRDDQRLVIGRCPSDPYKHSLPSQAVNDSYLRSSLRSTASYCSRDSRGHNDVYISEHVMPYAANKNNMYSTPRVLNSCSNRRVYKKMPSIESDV

In the case of `O=C(Oc1cccc(F)c1OC(=O)c1cccc(O)c1)c1cccc(O)c1` [WZB117, 3-fluoro-1,2-phenylene bis(3-hydroxybenzoate)], the figures for the “I drug/I cotrol” value in assay [1] and in assay [2] were 0.84 ± 0.01 and 0.22 ± 0.04, respectively. The “influence of mutations on activity” value in assay [3] is listed as “none of the mutations in the pre-M1 region of the GluN1 subunit showed a detectable influence”. For the same compound, the IC50 (in general, the concentration at which inhibition is half-maximal) is 1.08 ± 0.31 µM in assay [4] (10 μM glycine) and 1.15 ± 0.34 µM in assay [4] (100 μM glycine, pH 7.3, holding potential −60 mV). In addition, in assay [4] (Flp-In-T-REx-293, read-out: I drug/I control), the remaining activity at 3 µM amounted to 8 ± 2%.
